Experiments:
Details in all cases: male, C57BL/6, mouse
[1] = tested on: Bcl2l11; assay: Biomarkers validation by q-pcr in precision cut liver slices: Bcl2l11 expression
Procedure: (§1) 23-weeks old male C57BL/6 mice were obtained from Harlan (Horst, The Netherlands). Animals were kept for 1 week at a housing temperature of 22°C and at a relative humidity of 30-70%. The lighting cycle was 12-h light and 12-h dark. At the age of 24 weeks animals were sacrificed by an overdose of isoflurane. The treatment protocol was approved by the Ethical Committee for Animal Experiments at Wageningen University.
(§2) Immediately after the animals were killed the liver was perfused with PBS and placed in ice-cold Krebs-Henseleit buffer (KHB) (pH 7.4, supplemented with 11 mM glucose). Liver tissue was transported to the laboratory within approximately 30 min and cylindrical liver cores were produced using a surgical biopsy punch with diameter of 5 mm (KAI, SynErgo Europe, Romania). Liver cores were placed in a Krumdieck tissue slicer (Alabama Research and Development, Munford, AL) filled with ice-cold KHB aerated with carbogen and supplemented with 11 mM glucose. Precesion cut liver slices (PCLS) with a diameter of 5 mm, a thickness of 0.2 mm and a weight of approximately 10 mg were prepared. Immediately after preparation, slices were transferred into culture plates filled with pre-warmed (37 degrees C) Williams E medium (WEM). Three liver slices were pre-cultured in one well of the 6-well plate filled with 4 ml of WEM for one hour with continuous shaking (70 rpm). Incubations were performed in an oxygen controlled incubator (Galaxy 48 R New Brunswick, Nijmegen, the Netherlands) at 80% of oxygen; 5% CO2 and the remaining gas volume was filled up to […] with N2. After one hour of pre-incubation, media were removed and replaced with fresh media containing test compounds or appropriate solvents. After incubations, samples were snap-frozen in liquid nitrogen and stored in -80 °C for further analysis. Samples dedicated to histology were stored in 4 % formaldehyde at room temperature.
(§3) PCLS were incubated at the same conditions as described above. Slices were exposed for 24 and 48 hours to one concentration of the tested compounds or controls. Concentrations used in the exposure experiments were preselected in the dose selection experiments for each drug individually. […] For the necrotic compounds: 1000 uM acetaminophen, 5 µM paraquat and 1000 uM isoniazid. Liver slices obtained from five mice were used in five toxic compound or control exposure experiments performed at the same time. Dose selection experiments and exposure experiments were performed at different days. Therefore, ATP, LDH, and protein assays were performed again for the exposure experiments to confirm that the selected doses did also not affect slice viability in these experiments.
(§4) In further studies, expression of ten candidate biomarkers in PCLS was analyzed by q-pcr using the Biorad CFX96 TM Real-Time Detection System (Bio-Rad, Veenendaal, The Netherlands) with the following cycling conditions: 15 min 95°C followed by 40 cycles of 15s 95 °C and 1 min 60 °C. Reactions were performed in 10 µl and contained 20 ng cDNA, 1x TaqMan PCR Master Mix (Applied Biosystems, Foster City, CA), and depending on the analysed gene, 250 nM probe and 900 nM primer (for actin b) or 1xTaqMan gene expression assay (for the remaining genes) (Applied Biosystems, foster City, CA).

[2] = tested on: Parp16; assay: Biomarkers validation by q-pcr in precision cut liver slices: Parp16 expression
Procedure: as §1, §2, §3, §4

[3] = tested on: Mras; assay: Biomarkers validation by q-pcr in precision cut liver slices: Mras expression
Procedure: as §1, §2, §3, §4

[4] = tested on: Myo1e; assay: Biomarkers validation by q-pcr in precision cut liver slices: Myo1e expression
Procedure: as §1, §2, §3, §4

[5] = tested on: Nme6; assay: Biomarkers validation by q-pcr in precision cut liver slices: Nme6 expression
Procedure: as §1, §2, §3, §4

[6] = tested on: ABCG5; assay: Biomarkers validation by q-pcr in precision cut liver slices: ABCG5 expression
Procedure: as §1, §2, §3, §4

[7] = tested on: ABCG8; assay: Biomarkers validation by q-pcr in precision cut liver slices: ABCG8 expression
Procedure: as §1, §2, §3, §4

[8] = tested on: SERPINE1; assay: Biomarkers validation by q-pcr in precision cut liver slices: SERPINE1 expression
Procedure: as §1, §2, §3, §4

[9] = tested on: BAAT; assay: Biomarkers validation by q-pcr in precision cut liver slices: BAAT expression
Procedure: as §1, §2, §3, §4

[10] = tested on: KLF15; assay: Biomarkers validation by q-pcr in precision cut liver slices: KLF15 expression
Procedure: as §1, §2, §3, §4

[11] = tested on: PCLS; assay: Cytotoxicity analysis - dose selection experiments (LDH, ATP, protein assay)
Procedure: as §1, §2, §3

CC(=O)Nc1ccc(O)cc1 [APAP, acetaminophen]
*fold change 1, gene expression level Bcl2111 [1]: 1,9
*fold change 2, gene expression level Bcl2111 [1]: 1,1
*fold change 3, gene expression level Bcl2111 [1]: 2,0
*fold change 4, gene expression level Bcl2111 [1]: 2,4
*fold change 5, gene expression level Bcl2111 [1]: 1,7
*fold change 1, gene expression level Parp 16 [2]: 1,4
*fold change 2, gene expression level Parp 16 [2]: -1,3
*fold change 3, gene expression level Parp 16 [2]: 1,4
*fold change 4, gene expression level Parp 16 [2]: 1,5
*fold change 5, gene expression level Parp 16 [2]: 1,6
*fold change 1, gene expression level Mras [3]: 1,7
*fold change 2, gene expression level Mras [3]: -1,0
*fold change 3, gene expression level Mras [3]: 1,3
*fold change 4, gene expression level Mras [3]: 1,2
*fold change 5, gene expression level Mras [3]: 1,4
*fold change 1, gene expression level Myo 1e [4]: 1,1
*fold change 2, gene expression level Myo 1e [4]: -1,2
*fold change 3, gene expression level Myo 1e [4]: 1,4
*fold change 4, gene expression level Myo 1e [4]: 1,4
*fold change 5, gene expression level Myo 1e [4]: 1,4
*fold change 1, gene expression level Nme6 [5]: -1,2
*fold change 2, gene expression level Nme6 [5]: -1,2
*fold change 3, gene expression level Nme6 [5]: -1,1
*fold change 4, gene expression level Nme6 [5]: -1,3
*fold change 5, gene expression level Nme6 [5]: 1,0
*fold change 1, gene expression level ABCG5 [6]: -2,1
*fold change 2, gene expression level ABCG5 [6]: -1,3
*fold change 3, gene expression level ABCG5 [6]: 1,4
*fold change 4, gene expression level ABCG5 [6]: -1,4
*fold change 5, gene expression level ABCG5 [6]: 1,1
*fold change 1, gene expression level ABCG8 [7]: -1,7
*fold change 2, gene expression level ABCG8 [7]: -1,2
*fold change 3, gene expression level ABCG8 [7]: 1,4
*fold change 4, gene expression level ABCG8 [7]: -1,1
*fold change 5, gene expression level ABCG8 [7]: 1,4
*fold change 1, gene expression level SERPINE1 [8]: -1,6
*fold change 2, gene expression level SERPINE1 [8]: -1,4
*fold change 3, gene expression level SERPINE1 [8]: 1,2
*fold change 4, gene expression level SERPINE1 [8]: -1,3
*fold change 5, gene expression level SERPINE1 [8]: 1,5
*fold change 1, gene expression level BAAT [9]: -5,0
*fold change 2, gene expression level BAAT [9]: -2,0
*fold change 3, gene expression level BAAT [9]: -1,4
*fold change 4, gene expression level BAAT [9]: -2,8
*fold change 5, gene expression level BAAT [9]: -1,5
*fold change 1, gene expression level KLF15 [10]: -1,5
*fold change 2, gene expression level KLF15 [10]: -1,2
*fold change 3, gene expression level KLF15 [10]: -1,4
*fold change 4, gene expression level KLF15 [10]: -1,1
*fold change 5, gene expression level KLF15 [10]: 1,2
highest concentration that did not cause significant increase of toxicity [11]: 1000 µM

From patent EP2762573A1, “In vitro method for determining cholestatic properties of a compound” (priority 2013, dated 2014)
